We go through 1 compound from ChEMBL document CHEMBL5537152, “Targeted Degradation of PCSK9 In Vivo by Autophagy-Tethering Compounds” (J Med Chem, 2024).

Experiment [1] has as its system Mus musculus. The experiment can be described thus: Antiatherosclerotic activity in hypercholesterolemic ApoE-/- mouse model assessed as decrease in plasma LDL-C level at 15 mg/kg/day, ip measured after 21 days relative to control. It counts as functional. To be noted: time 21 day.
In experiment [2] the test system is Mus musculus. Kind of experiment: Synergistic antiatherosclerotic activity in hypercholesterolemic ApoE-/- mouse model assessed as decrease in plasma LDL-C level at 15 mg/kg, ip administered daily for 3 weeks. It counts as functional. Details: scale not given: the % may be the effect or the level left.

The structures appear in SMILES notation.

As to `CCC(C)(C)C(=O)O[C@H]1C[C@@H](C)C=C2C=C[C@H](C)[C@H](CC[C@@H]3C[C@@H](O)CC(=O)O3)[C@H]21` [SIMVASTATIN], the Efficacy in experiment [1] amounted to 23.59%. Moreover, the Activity in experiment [2] is reported as 23.59%.
